Assay [1] relates to H460 non-small cell lung cancer human tumor cell line. Kind of assay: In vitro human tumor cell line cytotoxicity (proliferation) assay, H460. The format is cell-based. As to conditions: NCI-H460, H460 cells, 2 hrs compound exposure, wash, additional 70 hrs incubation, AlamarBlue. On the procedure: In vitro human tumor cell line cytotoxicity assays.
In vitro proliferation data on the H460 non-small cell lung cancer human tumor cell line is reported below in the compound table.
(§1) Specifically, exponentially growing cells were seeded at a density of 4×10^3 cells per well in a 96 well plate and incubated at 37° C. in 5% CO2, 95% air and 100% relative humidity for 24 hours prior to addition of test compounds. Compounds were solubilized in 100% DMSO at 200 times the desired final test concentration. At the time of drug addition, compounds were further diluted to 4 times the desired final concentration with complete medium. Aliquots of 50 μl of compound at specified concentrations were added to microtiter wells already containing 150 μl of medium, resulting in the final drug concentration reported. After drug addition, the plates were incubated for an additional 2 hours at 37° C., 5% CO2, 95% air, and 100% relative humidity, then the drug was washed off and fresh medium was added and the plates were incubated for addition 70 hrs at 37° C., 5% CO2, 95% air and 100% relative humidity. At the end of this incubation, the viable cells were quantified using the AlamarBlue assay.

The test system of another assay is H460 cancer cells. Kind of assay: H460 proliferation assay in the presence of the specific AKR1C3 enzyme inhibitor TH-3021. The format is cell-based, human. The note with it: AKR1C3 inhibitor TH-3021 at 3 micromolar, added two hours before compound treatment, read-out: IC50 (nM) obtained when the AKR1C3 inhibitor TH-3021 was added. On the procedure: as §1
Similarly, in order to further verify that the compounds are activated by human AKR1C3 ([…] family 1 member C3), the effect of some of the compounds on the proliferation of H460 cancer cells was tested in the presence of a specific AKR1C3 enzyme inhibitor (at 3 micromolar concentration). The inhibitor-added compound solution was added to the cell culture two hours before the treatment with the compound. The inhibitor used was compound 36, i.e.,
[drawing 17] (TH-3021) in Flanagan et al., Bioorganic and Medicinal Chemistry (2014), pages 962-977.

Molecules are shown by their SMILES.

The values below come from US12595275B2, “Fluorine-containing compound and anti-cancer medical use thereof” (ASCENTAWITS PHARMACEUTICALS, LTD., priority 2019, dated 2026).

`O=[N+]([O-])c1ccc(C(OP(=O)(N2CC2)N2CC2)C(F)(F)F)cc1Oc1ccc(C2CCC(F)(F)CC2)cc1` (centres unmarked) [Compound No. 49]: the IC50 in assay [1] was 9.61 nM; with H460 cancer cells it was more than 1000 nM.
